Experimental data from US9353089B2, “Compositions and methods for the treatment of malaria” (Saint Louis University, priority 2013, dated 2016).
Read-outs that look alike come from different tables or passages of the source.

Tests used:
[1] = biological target: Plasmepsin (PM-4; Plm IV) (Plasmodium falciparum (isolate 3D7), UniProt Q8IM16); assay: Plasmepsin-4 enzyme inhibition assay; format: biochemical; conditions: Table 8
Experimental: Plasmepsin-2 (PM-2; Plm II) and Plasmepsin (PM-4; Plm IV) expression and purification was performed following the published protocols (Istvan E S and Goldberg D E, 2005). The final purified protein was activated by diluting the protein to 0.3 mg/mL in activating buffer (0.1 M citrate pH 4.5, 0.1% Tween-20, 50 mM dithiothreitol) and incubated at room temperature for 40 min, then the activated enzyme was diluted in assay buffer (50 mM sodium acetate pH 4.7, 0.01% Tween-20). The enzymatic inhibition reaction was performed in 384 well plates with a total volume of 20 μl. 10 μl of diluted PM-2 or PM-4 enzyme was added to the 384-well plate except blank wells (blank wells add 10 μL of assay buffer) and 20 nL of serials of diluted 1000× compounds were added to the wells with 520 Echo® Liquid Handling System (Labcyte Inc.). 10 μL PM-2 peptide substrate (AnaSpec, Cat#, 62050) with assay buffer was then added to final concentration of 20 μM to start the reaction. After incubation the reaction at room temperature for 60 min, the fluorescence intensity at Ex/Em=360 nm/535 nm was measured using EnVision multilabel plate reader (Perkin-Elmer). The IC50 values were obtained using Graph Pad Prism 4 and are reported in Tables 8 and 9 below as PM-2 IC50 values.

[2] = system: Plasmodium falciparum 3D7 (CQ-sensitive); assay: In vitro antimalarial assay (malaria SYBR Green I-based fluorescence, MSF), 3D7; format: cell-based; conditions: for inhibition of growth at 1 µM: 3D7, 72 h, read-out: 3D7 % inh @ 1 μM
Method in brief: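 Asynchronous P. falciparum 3D7 cultures (0.5% parasitemia, 2% hematocrit) were exposed to serially diluted compounds, in quadruplicate. Growth was then quantified by SYBR Green I fluorescence after adding lysis buffer containing 0.2 μL/mL dye.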

[3] = biological target: Plasmepsin-2 (PM-2; Plm II) (Plasmodium falciparum (isolate HB3), UniProt P46925); assay: Plasmepsin-2 enzyme inhibition assay; format: biochemical
Method in brief: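 Enzymes activated in pH 4.5 citrate/DTT buffer, then assayed in 50 mM sodium acetate pH 4.7, 0.01% Tween-20. Compounds added before fluorogenic peptide substrate (final 20 µM); 60 min at room temperature, fluorescence Ex/Em 360/535 nm, IC50 by curve fit.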

[4] = biological target: recombinant human BACE1 (Homo sapiens, UniProt P56817); assay: β-Secretase (BACE1) enzyme inhibition FRET assay; format: biochemical
Experimental: (§1) The enzymatic inhibition activity assays were determined using the fluorescence resonance energy transfer (FRET) assay. The assays were performed in a 384-well plate format. […] CatD and CatE were activated by incubation in assay buffer (0.1 M NaOAc, 0.2 M NaCl, pH 3.5) at room temperature for 30 min. Subsequently, the rhBACE-1 substrate (R&D Systems, catalog# ES004), the Cathepsin D and Cathepsin E substrate (R&D Systems, Catalog # ES001) were added accordingly to final concentration 20 μM to initiate the reaction. After 60 min incubation at room temperature, the time-resolved fluorescence at Ex/Em=360 nm/460 nm was measured on an EnVision multilabel plate reader (Perkin-Elmer). The analytical software, GraphPad Prism 5.0 (GraphPad Software, Inc., USA) was used to generate IC50 values via non-linear regression analysis, which are reported in Tables 8-13 below as BACE1 IC50 values.

[5] = system: recombinant human BACE1; assay: β-Secretase (BACE1) enzyme inhibition FRET assay; format: biochemical
Experimental: as §1

[6] = biological target: recombinant human Cathepsin E (Homo sapiens (Human), UniProt P14091); assay: Cathepsin E enzyme inhibition FRET assay; format: biochemical; conditions: Table 8; read-out: CatE IC50
Experimental: (§2) The enzymatic inhibition activity assays were determined using the fluorescence resonance energy transfer (FRET) assay. The assays were performed in a 384-well plate format. […] The concentration of Cathepsin D was 20 ng/μL, and 1 ng/μL of Cathepsin E was used. CatD and CatE were activated by incubation in assay buffer (0.1 M NaOAc, 0.2 M NaCl, pH 3.5) at room temperature for 30 min. Subsequently, the rhBACE-1 substrate (R&D Systems, catalog# ES004), the Cathepsin D and Cathepsin E substrate (R&D Systems, Catalog # ES001) were added accordingly to final concentration 20 μM to initiate the reaction. After 60 min incubation at room temperature, the time-resolved fluorescence at Ex/Em=360 nm/460 nm was measured on an EnVision multilabel plate reader (Perkin-Elmer). The analytical software, GraphPad Prism 5.0 (GraphPad Software, Inc., USA) was used to generate IC50 values via non-linear regression analysis, which are reported in Tables 8-13 below as BACE1 IC50 values.

[7] = biological target: recombinant human Cathepsin D (Homo sapiens (Human), UniProt P07339); assay: Cathepsin D enzyme inhibition FRET assay; format: biochemical; conditions: Table 8; read-out: CatD IC50
Experimental: as §2

[8] = 3D7, Table 8, read-out: Pf 3D7 IC50
[9] = 3D7, Table 10, read-out: Pf3D7 IC50
[10] = 3D7, Table 13, read-out: 3D7 IC50
[11] = 3D7, read-out: 3D7 IC50 (μM), Table 12
[12] = 3D7, read-out: 3D7 IC50 (μM), Table 13
[13] = ratio of BACE1 IC50 to PM-2 IC50
[14] = 3D7, read-out: Pf 3D7 IC50, Table 8
[15] = 3D7, read-out: Pf 3D7 IC50 (μM), Table 11

Sequence of recombinant human Cathepsin D (P07339 65-412): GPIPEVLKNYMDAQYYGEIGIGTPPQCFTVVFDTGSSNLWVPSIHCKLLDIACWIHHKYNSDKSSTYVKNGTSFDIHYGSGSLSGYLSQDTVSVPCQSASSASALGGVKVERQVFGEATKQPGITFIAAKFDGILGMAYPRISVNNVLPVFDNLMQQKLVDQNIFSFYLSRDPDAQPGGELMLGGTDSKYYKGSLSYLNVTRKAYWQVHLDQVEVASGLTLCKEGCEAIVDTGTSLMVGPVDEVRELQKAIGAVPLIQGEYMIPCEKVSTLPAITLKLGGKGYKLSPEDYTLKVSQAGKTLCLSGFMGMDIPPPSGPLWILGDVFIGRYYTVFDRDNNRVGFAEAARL
Sequence of recombinant human Cathepsin E (P14091 54-396): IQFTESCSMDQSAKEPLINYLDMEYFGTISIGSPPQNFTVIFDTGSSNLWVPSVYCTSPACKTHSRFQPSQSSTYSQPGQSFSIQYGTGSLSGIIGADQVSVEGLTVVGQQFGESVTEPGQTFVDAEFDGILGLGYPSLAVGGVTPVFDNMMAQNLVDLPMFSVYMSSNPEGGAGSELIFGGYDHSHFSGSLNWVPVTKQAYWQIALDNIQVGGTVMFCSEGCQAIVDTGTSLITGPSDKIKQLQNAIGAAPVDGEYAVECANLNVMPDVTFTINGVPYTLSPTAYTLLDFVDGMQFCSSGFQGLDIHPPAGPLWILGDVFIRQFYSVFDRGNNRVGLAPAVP
Sequence of Plasmepsin-2 (PM-2; Plm II) (P46925 125-453 limits assumed): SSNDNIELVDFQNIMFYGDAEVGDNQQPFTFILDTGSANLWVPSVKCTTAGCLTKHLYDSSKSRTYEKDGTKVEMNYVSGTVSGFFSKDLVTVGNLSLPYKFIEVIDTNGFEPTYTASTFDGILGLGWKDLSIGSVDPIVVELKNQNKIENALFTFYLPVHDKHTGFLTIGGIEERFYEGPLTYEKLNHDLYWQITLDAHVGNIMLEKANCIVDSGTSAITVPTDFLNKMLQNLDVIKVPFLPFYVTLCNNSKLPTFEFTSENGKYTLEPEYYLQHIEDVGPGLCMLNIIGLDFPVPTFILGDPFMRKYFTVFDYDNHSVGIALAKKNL
Sequence of recombinant human BACE1 (Homo sapiens, UniProt P56817) (P56817 46-501 limits assumed): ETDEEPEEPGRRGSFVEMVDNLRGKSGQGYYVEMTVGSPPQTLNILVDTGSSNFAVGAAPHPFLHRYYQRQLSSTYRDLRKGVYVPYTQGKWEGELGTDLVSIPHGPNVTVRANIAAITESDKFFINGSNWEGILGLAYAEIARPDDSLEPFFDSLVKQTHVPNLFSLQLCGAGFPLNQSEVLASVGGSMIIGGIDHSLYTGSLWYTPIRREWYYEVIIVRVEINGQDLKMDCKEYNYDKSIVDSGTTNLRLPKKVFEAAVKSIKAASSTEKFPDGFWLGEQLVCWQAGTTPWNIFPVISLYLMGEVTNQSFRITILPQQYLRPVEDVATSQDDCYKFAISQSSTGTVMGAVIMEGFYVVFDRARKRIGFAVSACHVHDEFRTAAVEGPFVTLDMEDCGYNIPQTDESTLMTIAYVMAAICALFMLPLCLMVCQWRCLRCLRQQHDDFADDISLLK
Sequence of Plasmepsin (PM-4; Plm IV) (Q8IM16 122-449 limits assumed): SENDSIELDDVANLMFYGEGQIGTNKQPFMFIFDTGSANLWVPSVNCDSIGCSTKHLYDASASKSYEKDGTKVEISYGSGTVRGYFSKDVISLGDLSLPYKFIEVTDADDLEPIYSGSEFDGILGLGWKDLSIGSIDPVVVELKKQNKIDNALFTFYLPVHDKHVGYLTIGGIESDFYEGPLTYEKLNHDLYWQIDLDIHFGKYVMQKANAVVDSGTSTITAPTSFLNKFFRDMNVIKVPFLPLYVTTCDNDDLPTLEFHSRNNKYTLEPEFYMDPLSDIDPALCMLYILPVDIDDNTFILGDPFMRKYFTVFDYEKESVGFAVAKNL

Compound	IC50 [1]	IC50 ([3]; Table 8, read-out: PM-II IC50)	IC50 ([3]; Table 13, read-out: PM-2 IC50)	IC50 [2, 12]	IC50 ([4]; Table 13, read-out: BACE1 IC50)	other results
COc1ccc(C2(c3ccc(OC)cc3)NC(=N)N(C3CCN(C)CC3)C2=O)cc1 [Example 166, 2-imino-5,5-bis(4-methoxyphenyl)-3-(1-methylpiperidin-4-yl)imidazolidin-4-one]	0.109 µM	0.035 µM	0.0347 µM			IC50 [2, 8]: 0.697 µM; IC50 [2, 9]: 0.697 µM; IC50 [2, 10]: 0.697 µM
COc1cccc(-c2cccc(C3(c4ccccc4)NC(=N)N(C4CCCCC4)C3=O)c2)c1 (centres unmarked) [Example 326, 3-cyclohexyl-2-imino-5-[3-(3-methoxyphenyl)phenyl]-5-phenylimidazolidin-4-one]			0.0331 µM	1.34 µM	~8.9 µM	IC50 [2, 11]: 1.34 µM; IC50 ([3]; Table 12, read-out: PM-2 IC50): 0.0331 µM; IC50 ([4]; Table 12, read-out: BACE1 IC50): ~9 µM; BACE1/PM2 Ratio [5, 13]: ~270
CCC(CN1C(=N)NC(c2ccccc2)(c2ccccc2)C1=O)c1ccccc1 (centres unmarked) [drawing 192]	0.045 µM	0.012 µM				IC50 [2, 14]: 2.76 µM; IC50 [6]: 0.099 µM; IC50 ([4]; Table 8, read-out: BACE IC50): 2.3 µM; IC50 [7]: 0.385 µM
COc1cccc(-c2cccc(C3(C4CC4)NC(=N)N(C4CCOCC4)C3=O)c2)c1 (centres unmarked) [Example 329, 5-cyclopropyl-2-imino-5-[3-(3-methoxyphenyl)-phenyl]-3-(oxan-4-yl)imidazolidin-4-one]			0.0831 µM	0.621 µM	~3.6 µM	IC50 [2, 11]: 0.746 µM; IC50 ([3]; Table 12, read-out: PM-2 IC50): 0.0831 µM; IC50 ([4]; Table 12, read-out: BACE1 IC50): ~4 µM; BACE1/PM2 Ratio [5]: 48
COc1ccc(C2(c3cccc(-c4cccnc4)c3)NC(=N)N(C3CCCCC3)C2=O)cc1 (centres unmarked) [Example 171, 3-cyclohexyl-2-imino-5-(4-methoxyphenyl)-5-[3-(pyridin-3-yl)phenyl]-imidazolidin-4-one]	0.007 µM	0.007 µM	0.00697 µM	0.595 µM	~7.15 µM	IC50 [2, 15]: 0.595 µM; IC50 [2, 14]: 0.595 µM; IC50 [6]: 4.01 µM; IC50 ([4]; Table 8, read-out: BACE IC50): ~7.15 µM; IC50 [7]: ~14.9 µM
COc1cccc(-c2cccc(C3(c4ccccc4)NC(=N)N(C4CCOCC4)C3=O)c2)c1 (centres unmarked) [Example 324, 2-imino-5-[3-(3-methoxyphenyl)-phenyl]-3-(oxan-4-yl)-5-phenylimidazolidin-4-one]			0.0113 µM	1.46 µM	2.46 µM	IC50 [2, 11]: 1.46 µM; IC50 ([3]; Table 12, read-out: PM-2 IC50): 0.0113 µM; IC50 ([4]; Table 12, read-out: BACE1 IC50): 2.46 µM; BACE1/PM2 Ratio [5, 13]: 218
COc1cccc(C2(c3cccc(OC)c3)NC(=N)N(C3CCCCC3)C2=O)c1 [Example 128, 3-cyclohexyl-2-imino-5,5-bis(3-methoxyphenyl)-imidazolidin-4-one]	0.041 µM	0.036 µM	0.0359 µM	0.768 µM	28.9 µM	IC50 [2, 15]: 0.768 µM; IC50 [2, 14]: 0.768 µM; IC50 [6]: 1.86 µM; IC50 ([4]; Table 8, read-out: BACE IC50): 28.9 µM; IC50 [7]: 1.1 µM
COc1ccc(C2(c3ccc(OC)cc3)NC(=O)N(C3CCCCC3)C2=O)cc1	> 10 µM	> 10 µM				IC50 [2, 8]: > 10 µM
COc1ccc(C2(c3ccc(OC)cc3)NC(=N)N(C3CCNCC3)C2=O)cc1 [Example 207, 2-imino-5,5-bis(4-methoxyphenyl)-3-(piperidin-4-yl)-imidazolidin-4-one]	0.192 µM	0.505 µM	0.505 µM			IC50 [2, 8]: > 5 µM; IC50 [2, 9]: > 5 µM; IC50 [2, 10]: > 5 µM
COc1ccc(C2(C3CC3)NC(=N)N(C3CCOCC3)C2=O)cc1 (centres unmarked) [Example 325, 5-cyclopropyl-2-imino-5-(4-methoxyphenyl)-3-(oxan-4-yl)imidazolidin-4-one]			0.426 µM	0.752 µM	> 10 µM	
N=C1NC(c2cccc(-c3cncc(Cl)c3)c2)(C2CC2)C(=O)N1C1CCOCC1 (centres unmarked) [Example 489, 5-(3-(5-chloropyridin-3-yl)phenyl)-5-cyclopropyl-2-imino-3-(tetrahydro-2H-pyran-4-yl)imidazolidin-4-one]			0.211 µM	0.268 µM	1.16 µM	
COc1ccc(C2(c3cnn(C)c3)NC(=N)N(C3CCOCC3)C2=O)cc1 (centres unmarked) [Example 336, 2-imino-5-(4-methoxyphenyl)-5-(1-methyl-1H-pyrazol-4-yl)-3-(oxan-4-yl)-imidazolidin-4-one]			0.395 µM		> 10 µM	inhibition of growth at 1 µM [2]: 70%
COc1ccc(C2(c3ccc(OC)cc3)NC(=N)N(C3CCN(C(=O)c4ccccc4)CC3)C2=O)cc1 [Example 311, 3-(1-benzoylpiperidin-4-yl)-2-imino-5,5-bis(4-methoxyphenyl)imidazolidin-4-one]			0.002 µM		~6.8 µM	inhibition of growth at 1 µM [2]: 81%
N=C1NC(c2cccc(-c3cccnc3)c2)(C2CCCCC2)C(=O)N1C1CCOCC1 (centres unmarked) [Example 517, 5-cyclohexyl-2-imino-5-(3-(pyridin-3-yl)phenyl)-3-(tetrahydro-2H-pyran-4-yl)imidazolidin-4-one]			0.125 µM	0.35 µM	14.7 µM	
N=C1NC(c2cccc(-c3cccnc3)c2)(C2CC2)C(=O)N1C1CCOCC1 (centres unmarked) [Example 487, 5-cyclopropyl-2-imino-5-(3-(pyridin-3-yl)phenyl)-3-(tetrahydro-2H-pyran-4-yl)imidazolidin-4-one]			0.512 µM	0.248 µM	8.65 µM	
